Assay results as given in patent publication US20250223295A1, “SOLID STATE FORMS OF RUCAPARIB TOSYLATE” (ASSIA CHEMICAL INDUSTRIES LTD., priority 2022, published 2025).
Entries after “also recorded” stand apart in the source; their conditions may differ.

Columns and labels:
Assay type in all cases: physicochemical
[1] = Stability to compression (XRPD); settings: for XRPD analysis results: after 1-5 minutes
Description: (§1) A sample is powdered in a mortar and pestle and applied directly on a silicon plate holder. The X-ray powder diffraction pattern was measured with Philips X'Pert PRO X-ray powder diffractometer, equipped with Cu irradiation source=1.54184 Å (Ångström), X'Celerator (2.022° 2θ) detector. Scanning parameters: angle range: 3-40 deg., step size 0.0167, time per step 37 s, continuous scan.
Samples of Rucaparib tosylate form X were subjected to pressures of 1000 kg and 2000 kg. XRPD analysis was performed on the samples after 1-5 minutes.

[2] = Exposure to solvent vapour (XRPD); settings: 25° C., 7 days
Description: as §1
Samples of Rucaparib tosylate form X (20-40 mg) were put in small vials and exposed to solvent vapours (2.5 ml each of ethanol, 96%, water and 2-propanol) at 25° C.

[3] = Grinding experiments (XRPD); settings: for XRPD analysis results: 3 minutes
Description: as §1
Samples of Rucaparib tosylate form X were subjected to strong grinding, and to solvent drop grinding in water, ethanol (96%) and 2-propanol. Grinding was carried out on the samples alone, or in the presence of ethanol, water and 2-propanol. In these experiments, about 20-30 mg of the sample were placed in a mortar and ground with a pestle for 3 minutes. The solvent, when used, as added to the crystalline material before grinding, in a volume of 10 microlitres.

Thermal stability (XRPD) = settings: Heating 100° C., 30 minutes
Description: as §1
A sample of Rucaparib tosylate form X was subjected to heating up to 100° C. for 30 minutes.

[4] = Storage stability at different relative humidities (XRPD); settings: for XRPD analysis results: 7 days
Description: as §1
Samples of Rucaparib tosylate form X (about 200 mg each) were subjected to conditions of different relative humidities at ambient temperature. XRPD analysis was performed on the samples after 7 days.
A sample of Rucaparib tosylate form X was subjected to 100% relative humidity at 25° C.

XRPD analysis results ([1]; Pressure 1000 kg): No change | XRPD analysis results ([1]; Pressure 2000 kg): No change | Stability under high pressure conditions ([1]; pressures of 1000 kg and 2000 kg): stable | XRPD analysis results ([2]; 2-propanol vapour): Form X | XRPD analysis results ([2]; Ethanol, 96% vapour): Form X | XRPD analysis results ([2]; Water vapour): Form X | XRPD analysis results ([3]; Solvent-drop grinding (2-propanol), 10 microlitres): Form X | XRPD analysis results ([3]; Solvent-drop grinding (ethanol), 10 microlitres): Form X | XRPD analysis results ([3]; Solvent-drop grinding (water), 10 microlitres): Form X | XRPD analysis results ([3]; Strong grinding): Form X | XRPD analysis after the grinding experiment ([3]; all grinding conditions: alone or with ethanol, water, 2-propanol): no change in the starting material | XRPD analysis results ([4]; 20% relative humidity, ambient temperature, triplicate): Form X | Stability after exposure to high and low relative humidity ([4]; 20-100% relative humidity, ambient temperature, at least 7 days): stable | XRPD analysis results ([4]; 40% relative humidity, ambient temperature, triplicate): Form X | XRPD analysis results ([4]; 60% relative humidity, ambient temperature, triplicate): Form X | XRPD analysis results ([4]; 80% relative humidity, ambient temperature, triplicate): Form X | XRPD analysis, polymorphic change ([4]; 100% relative humidity, 25° C., 30 days, triplicate): no polymorphic change | XRPD analysis results ([4]; 100% relative humidity, ambient temperature, triplicate): Form X
Substance: Rucaparib Tosylate [Rucaparib tosylate form X]
Result (XRPD analysis) (Thermal stability (XRPD)): no change in the starting material; also recorded: Form X
